# Experimental data taken from patent US6130250A, “Veterinary use of a pleuromutilin derivative” (priority 1996, dated 2000).
# Values joined by “and” are separate entries in the source; they are usually repeats but may differ in a detail not shown here. Equal entries are not always repeated. Structures can show the parent of a compound that is named as a salt. Where two headings read alike, the source gives them in different places.
# What was measured:
# S. hyodysenteriae = details: cited from earlier work
# Lawsonia intracellularis [1] = assay: Challenge study: porcine proliferative enteropathy; type: in vivo, pigs
# [2] = tested on: weakly beta-hemolytic spirochetes; details: WBHS
# Lawsonia intracellularis [3] = assay: Lawsonia intracellularis infection of IEC-18 rat enterocyte cell cultures; type: cell-based; details: for Percentage ratio of Lawsonia intracellularis infection: listed as Valnemulin (ch); for percent of cells infected with Lawsonia intracellularis at 2 µg/mL: IEC-18, 2 μg/ml; for percent of cells infected with Lawsonia intracellularis at 2 µg/mL / percent of cells infected with Lawsonia intracellularis at 8 µg/mL: first strain column, read-out: Percentage ratio of Lawsonia intracellularis infection; for percent of cells infected with Lawsonia intracellularis at 8 µg/mL: IEC-18, 8 μg/ml
# Procedure: The method of Lawson, G. H. K. et al., J. Clin. Microbiol. 31 (1993) 1136-1142 is generally followed, with some modifications (standard Kirby-Bauer disc methods are not applicable to intracellular bacteria):
# Cells: Monolayers of IEC-18 rat enterocyte cell cultures (ATCC CRL 1589) are established and maintained by standard cell culture methods. One day old monolayers of dividing cells (approx. 30% confluence) are prepared for infection on day 0, on glass coverslips in small culture vials (Tracs).
# Inocula: Batches of three strains of Lawsonia intracellularis are used as inocula. These are derived from pigs afflicted with proliferative enteropathy, of the proliferative haemorrhagic enteropathy (PHE) and porcine intestinal adenomatosis (PIA) forms prepared from pig intestines, and passaged in cell cultures as described in the above Lawson reference. The two PHE strains were partly tested for pathogenicity in pigs as described in McOrist, S. et al., Infect. Immun. 61 (1993) 4286-4292. Inocula batches are collected after several cell passages, and stored frozen at -70° C. in 1 ml vials. Preliminary trials established appropriate dilutions of thawed vials that would result in readily recognizeable cell infections in 5 day trials.
# Antibiotics are prepared as 100× stock solutions for each use. Activity of each batch of antibiotic is confirmed by standard Kirby-Bauer disc methods with a laboratory strain of Escherichia coli.
# Infections: On day 0, a vial of each strain is thawed, diluted 1/8 to 1/32 with culture medium, for use in four groups 1 to 4.
# For group 4 (continuous treatment) this inoculum is initially incubated for one hour at 37° C. in culture medium containing the antibiotic at various concentrations prior to addition to cells.
# For group 3 (extracellular activity) this inoculum is prepared in culture medium, containing the antibiotic at various concentrations added immediately prior to time of addition to cells.
# For groups 1 (control) and 2 (intracellular activity) inocula are prepared in culture medium free of antibiotics and added to cells. Culture vials (Tracs) with cells with added inocula (+/- antibiotics) in a total of 0.5 ml of medium are placed in steel jars, evacuated to 40% atmosphere (8% O2), left for 2 min, replenished with hydrogen and finally 10% CO2. Tracs are then removed from these jars and placed into an incubator set to provide a humidified atmosphere of 8% O2, 8.8% CO2 and the remainder nitrogen, at 37° C.
# On days 1 and 2 all vials are removed and refed with fresh medium, either containing antibiotics, groups 2 and 4, or not, groups 1 and 3, and replaced into the incubator. On day 5, all coverslips are removed and stained for Lawsonia intracellularis by indirect immunoperoxidase stain incorporating a specific monoclonal antibody. The number of cells on each coverslip, heavily infected with Lawsonia intracellularis (>30 per cell, heavily infected cell=HIC) is used as the main measure of infection. The number of foci of HIC and general cell observations are also noted. HIC in control (group 1), intracellularly active antibiotic assay (group 2), extracelluiarly active antibiotic assay (group 3) and continuous treatment assay (group 4) are compared in triplicate assays, for up to 3 strains each. Some assay are repeated for various inocula strengths. Percentage ratios are calculated after derivation of the mean HIC of the controls relevant to the test group. Mean control HIC is the total number of HIC in control Tracs divided by the number of infected control Tracs. The percentage ratio of test Tracs is then calculated by dividing their HIC value by the mean control HIC, multiplied by 100 to give a percentage.
# [4] = Lawsonia intracellularis, group 2 (intracellular activity)
# [5] = Lawsonia intracellularis, group 3 (extracellular activity)
Compound,"elimination of S. hyodysenteriae (S. hyodysenteriae; tiamulin 35 and 40 ppm, Taylor 1980)","treatment of swine dysentery (S. hyodysenteriae; tiamulin 100 ppm, less severely affected animals, Taylor 1982)",prevention or treatment of disease in words (Lawsonia intracellularis [1]; low actual doses),"pigs with no visible lesions of proliferative enteropathy (Lawsonia intracellularis [1]; prevention group, 25/75 ppm from two days before challenge)","pigs with no visible lesions of proliferative enteropathy (Lawsonia intracellularis [1]; treatment group, 25/75 ppm from seven days after challenge)",strains with MIC at the lowest value [2],"Percentage ratio of Lawsonia intracellularis infection (Lawsonia intracellularis [3]; 4 μg/ml, group 2 (intracellular activity)) [%]","Percentage ratio of Lawsonia intracellularis infection (Lawsonia intracellularis [3]; 4 μg/ml, group 3 (extracellular activity))","Percentage ratio of Lawsonia intracellularis infection (Lawsonia intracellularis [3]; 4 μg/ml, group 4 (continuous treatment))","Percentage ratio of Lawsonia intracellularis infection (Lawsonia intracellularis [3]; 8 μg/ml, group 2 (intracellular activity)) [%]","Percentage ratio of Lawsonia intracellularis infection (Lawsonia intracellularis [3]; 8 μg/ml, group 3 (extracellular activity))","Percentage ratio of Lawsonia intracellularis infection (Lawsonia intracellularis [3]; 8 μg/ml, group 4 (continuous treatment))",percent of cells infected with Lawsonia intracellularis at 2 µg/mL (Lawsonia intracellularis [3]; [4]) [%],percent of cells infected with Lawsonia intracellularis at 2 µg/mL (Lawsonia intracellularis [3]; [5]) [%],percent of cells infected with Lawsonia intracellularis at 8 µg/mL (Lawsonia intracellularis [3]; [4]) [%],percent of cells infected with Lawsonia intracellularis at 8 µg/mL (Lawsonia intracellularis [3]; [5]) [%],"percent of cells infected with Lawsonia intracellularis at 8 µg/mL (Lawsonia intracellularis [3]; Lawsonia intracellularis, group 4 (continuous treatment)) [%]","MIC (Lawsonia intracellularis [3]; Lawsonia intracellularis, read-out: minimum concentration to cause significant inhibition of growth (<1% growth)) [µg/mL]"
C=C[C@]1(C)C[C@@H](OC(=O)CSCCN(CC)CC)[C@]2(C)[C@H](C)CC[C@]3(CCC(=O)[C@H]32)[C@@H](C)[C@@H]1O [tiamulin hydrogen fumarate],eliminate S. hyodysenteriae from faeces but not prevent the recovery from mucosal scrapings,successfully used under experimental conditions,,,,,,,,,,,,,,,,
"C=C[C@]1(C)C[C@@H](OC(=O)CSC(C)(C)CNC(=O)[C@H](N)C(C)C)[C@]2(C)[C@H](C)CC[C@]3(CCC(=O)[C@H]32)[C@@H](C)[C@@H]1O [valnemulin hydrochloride, 14-O-[1-[(R)-2-amino-3-methylbutyrylamino]-2-methylpropan-2-ylthioacetyl]mutilin]",,,prevented or treated the disease in a large proportion of challenged pigs,3 of 7,5 of 7,9 out of 10 strains,1.7,0.83% and 1.7%,0.8% and 2.5%,0.86,0.2% and 1.4%,0.5% and 1.4% and 0.2%,0,0,0,0,0,< 2
